≈ marks a conversion by molar mass, not a printed value. Calls of active or inactive are those of the source. The rule behind the calls is not given here.

Assay [1] has as its target T1, ClpP1P2 (Mycobacterium tuberculosis (strain ATCC 25618 / H37Rv), UniProt P9WPC3+P9WPC5). Description: Inhibition of N-terminal His6-SUMO-tagged Mtb ClpP1 (7 to 200 residues)/ClpP2 (13 to 214 residues) complex expressed in Escherichia coli BL21(DE3) using Z-Gly-Gly-Leu-AMC as substrate measured for 60 mins in presence of Bz-LL by fluorescence based assay.
Assay [2] deals with T1, ClpP1P2. Description: Inhibition of N-terminal His6-SUMO-tagged Mtb ClpP1 (7 to 200 residues)/ClpP2 (13 to 214 residues) complex expressed in Escherichia coli BL21(DE3) using FITC-casein as substrate measured for 1 hr in presence of Bz-LL/ATP by fluorescence based assay.
The subject of assay [3] is Mycobacterium tuberculosis. Description: Antibacterial activity against Mycobacterium tuberculosis H37Ra assessed as bacterial growth inhibition incubated for 24 hrs by broth microdilution method. The format is functional. In general terms: Dilution methods test growth across graded concentrations, often in twofold steps.
Assay [4] addresses T2, ClpP1P2 (Mycobacterium tuberculosis (strain ATCC 25618 / H37Rv)) (UniProt P9WPC5+P9WPC3). Description: Binding affinity to ClpP1 in Mtb H37Ra lysate at 5 mM incubated for 4 hrs by affinity based capture method. The format is subcellular.
The target in assay [5] is ATP-dependent Clp protease ATP-binding subunit ClpC1 (Mycobacterium tuberculosis) (UniProt P9WPC9). Description: Inhibition of N-terminal His6-tagged full-length Mtb ClpC1 ATPase activity expressed in Escherichia coli BL21(DE3) at 100 uM in presence of PK/LDH/ATP/NADH by spectrophotometry.
ATP-dependent Clp protease ATP-binding subunit ClpC1 (Mycobacterium tuberculosis), sequence (P9WPC9 whole entry): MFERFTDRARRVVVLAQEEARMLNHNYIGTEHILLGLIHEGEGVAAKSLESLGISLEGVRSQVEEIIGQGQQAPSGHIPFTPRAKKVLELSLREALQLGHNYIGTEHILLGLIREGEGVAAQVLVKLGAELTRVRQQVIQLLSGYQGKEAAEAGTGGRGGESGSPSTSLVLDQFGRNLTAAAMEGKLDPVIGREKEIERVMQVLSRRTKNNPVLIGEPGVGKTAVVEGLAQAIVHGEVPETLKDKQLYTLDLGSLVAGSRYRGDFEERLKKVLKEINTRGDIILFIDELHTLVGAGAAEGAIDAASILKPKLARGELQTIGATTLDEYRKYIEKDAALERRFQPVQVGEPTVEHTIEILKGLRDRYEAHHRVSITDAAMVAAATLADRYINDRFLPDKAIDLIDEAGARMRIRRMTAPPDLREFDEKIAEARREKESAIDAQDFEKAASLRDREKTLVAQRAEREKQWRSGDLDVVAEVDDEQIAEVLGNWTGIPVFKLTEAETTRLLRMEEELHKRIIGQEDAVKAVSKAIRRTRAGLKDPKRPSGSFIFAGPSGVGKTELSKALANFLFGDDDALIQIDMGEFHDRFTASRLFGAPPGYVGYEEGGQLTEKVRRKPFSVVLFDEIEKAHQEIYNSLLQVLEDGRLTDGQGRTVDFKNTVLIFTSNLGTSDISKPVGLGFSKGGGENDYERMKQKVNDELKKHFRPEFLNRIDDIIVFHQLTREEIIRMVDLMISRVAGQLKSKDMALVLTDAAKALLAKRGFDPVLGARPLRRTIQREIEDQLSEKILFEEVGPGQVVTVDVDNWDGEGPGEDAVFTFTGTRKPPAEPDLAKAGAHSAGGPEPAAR
For assay [6] the target is unchanged. Description: Inhibition of N-terminal His6-tagged full-length Mtb ClpC1 creatine kinase activity expressed in Escherichia coli BL21(DE3) using creatine phosphate as substrate at 100 uM preincubated for 10 mins followed by substrate addition measured after 10 mins in presence of ADP by Kinase-Glo assay. The following applies: time 20.0 min. On the technique in general: Kinase-Glo reads ATP consumption through a luciferase reaction.

Assay [7] addresses T1, ClpP1P2. Description: Binding affinity to N-terminal His6-SUMO-tagged Mtb ClpP1 (7 to 200 residues)/ClpP2 (13 to 214 residues) complex expressed in Escherichia coli BL21(DE3) assessed as increase in thermal stability measured at 25 to 110 degreeC in presence of Bz-LL by DSF assay. In general terms: DSF heats the sample and reads unfolding from a dye or from intrinsic fluorescence.

In assay [8] the test system is Mycolicibacterium smegmatis. Description: Antibacterial activity against wild-type Mycobacterium smegmatis mc2 155 assessed as bacterial growth inhibition incubated for 2 days by Alamar blue staining based assay. The format is functional. Particulars: mc2 155, 48 h, time 2 day.
Assay [9] concerns the target T2, ClpP1P2 (Mycobacterium tuberculosis (strain ATCC 25618 / H37Rv)). Description: Inhibition of N-terminal His6-SUMO-tagged Mtb ClpP1 (7 to 200 residues)/ClpP2 (13 to 214 residues) complex expressed in Escherichia coli BL21(DE3) using GFP-ssrA as substrate measured for 1 hr in presence of Bz-LL/ATP by fluorescence based assay.
The target in assay [10] is T1, ClpP1P2. Description: Inhibition of N-terminal His6-SUMO-tagged Mtb ClpP1 (7 to 200 residues)/ClpP2 (13 to 214 residues) complex expressed in Escherichia coli BL21(DE3) using GFP-ssrA as substrate incubated for 3 hrs in presence of Bz-LL/ATP by Coomassie blue staining based assay.
A short description of assay [11]: Inhibition of Staphylococcus aureus […] complex expressed in Escherichia coli BL21(DE3) using GFP-ssrA as substrate incubated for 3 hrs in presence of Bz-LL/ATP/ONC212 by Coomassie blue staining based assay.
Assay [12] can be described thus: Selectivity index, ratio of IC50 for full-length human ClpP complex ([…]) expressed in Escherichia coli BL21(DE3) using Ac-WLA-AMC as substrate to IC50 for N-terminal His6-SUMO-tagged Mtb ClpP1 (7 to 200 residues)/ClpP2 (13 to 214 residues) complex expressed in Escherichia coli BL21(DE3) using Z-Gly-Gly-Leu-AMC as substrate.
The nature of assay [13]: Selectivity index, ratio of IC50 for full-length human ClpP complex ([…]) expressed in Escherichia coli BL21(DE3) using FITC-casein as substrate to IC50 for N-terminal His6-SUMO-tagged Mtb ClpP1 (7 to 200 residues)/ClpP2 (13 to 214 residues) complex expressed in Escherichia coli BL21(DE3) using Z-Gly-Gly-Leu-AMC as substrate.
The target of assay [14] is T2, ClpP1P2 (Mycobacterium tuberculosis (strain ATCC 25618 / H37Rv)). Description: Binding affinity to N-terminal His6-SUMO-tagged Mtb ClpP1 (7 to 200 residues) expressed in Escherichia coli BL21(DE3) assessed as reduction in fluorescence intensity at 25 to 100 uM incubated for 30 mins in presence of Bz-LL by spectrophotometry relative to control. The arrangement: scale not given: the % may be the effect or the level left. Particulars: dose 25-100 µM.

In assay [15] the test system is Mycobacterium tuberculosis. Description: Binding affinity to N-terminal His6-SUMO-tagged Mtb ClpP1 (7 to 200 residues)/ClpP2 (13 to 214 residues) complex expressed in Escherichia coli BL21(DE3) assessed as reduction in fluorescence intensity at 25 to 100 uM incubated for 30 mins in presence of Bz-LL by spectrophotometry relative to control. The arrangement: scale not given: the % may be the effect or the level left. The following applies: dose 25-100 µM.

Assay [16] is described as follows: Inhibition of N-terminal His6-SUMO-tagged Mycobacterium smegmatis ClpP1 (3 to 200 residues)/P2 (17 to 218 residues) expressed in Escherichia coli BL21(DE3) using Z-Gly-Gly-Leu-AM as substrate measured for 60 mins in presence of Bz-LL by fluorescence based assay. Further details: species or system Mycolicibacterium smegmatis.
Assay [17] can be described thus: Inhibition of N-terminal His6-SUMO-tagged Mycobacterium smegmatis ClpP1 (3 to 200 residues)/P2 (17 to 218 residues) expressed in Escherichia coli BL21(DE3)/C1 using Z-Gly-Gly-Leu-AM as substrate measured for 60 mins in presence of Bz-LL by fluorescence based assay. Further details: species or system Mycolicibacterium smegmatis.
The test system of assay [18] is Mycolicibacterium smegmatis. Description: Antibacterial activity against Mycobacterium smegmatis mc2 155 harboring ClpX knockout assessed as bacterial growth inhibition incubated for 2 days by Alamar blue staining based assay. It counts as functional. Particulars: mc2 155, 48 h, time 2 day.
Assay [19] concerns Mycolicibacterium smegmatis. Description: Antibacterial activity against Mycobacterium smegmatis mc2 155 harboring ClpC1 knockout assessed as bacterial growth inhibition incubated for 2 days by Alamar blue staining based assay. It counts as functional. The following applies: mc2 155, 48 h, time 2 day.
Assay [20] deals with Mycolicibacterium smegmatis. Description: Antibacterial activity against wild-type Mycobacterium smegmatis mc2 155 assessed as bacterial growth inhibition upto 512 uM incubated for 2 days in presence of ATc by Alamar blue staining based assay. The following applies: time 2.0 day. The format is functional, organism-based.
Assay [21] relates to Mycolicibacterium smegmatis. Description: Antibacterial activity against wild-type Mycobacterium smegmatis mc2 155 harboring ClpP-tetoff mutant assessed as bacterial growth inhibition upto 512 uM incubated for 2 days in presence of ATc by Alamar blue staining based assay. The format is functional, organism-based. The following applies: time 2.0 day.
Assay [22] concerns the target T2, ClpP1P2 (Mycobacterium tuberculosis (strain ATCC 25618 / H37Rv)). Description: Inhibition of N-terminal His6-SUMO-tagged Mtb ClpP1 (7 to 200 residues)/ClpP2 (13 to 214 residues) complex expressed in Escherichia coli BL21(DE3) using Z-Gly-Gly-Leu-AMC as substrate at 10 uM incubated for 40 mins in presence of Bz-LL by fluorescence based assay.
Assay [23] relates to Mycobacterium tuberculosis. Description: Antibacterial activity against Mycobacterium tuberculosis H37Rv assessed as bacterial growth inhibition incubated for 24 hrs by broth microdilution method. It counts as functional.
Another assay has as its system Escherichia coli. Description: Antibacterial activity against Escherichia coli assessed as bacterial growth inhibition incubated for 24 hrs by broth microdilution method. It counts as functional.
Another assay relates to Staphylococcus aureus. Description: Antibacterial activity against Staphylococcus aureus assessed as bacterial growth inhibition incubated for 24 hrs by broth microdilution method. It counts as functional.
The subject of a further assay is Pseudomonas aeruginosa. Description: Antibacterial activity against Pseudomonas aeruginosa assessed as bacterial growth inhibition incubated for 24 hrs by broth microdilution method. It counts as functional.

T1 sequence (P9WPC5 whole entry, the tested form may be a part): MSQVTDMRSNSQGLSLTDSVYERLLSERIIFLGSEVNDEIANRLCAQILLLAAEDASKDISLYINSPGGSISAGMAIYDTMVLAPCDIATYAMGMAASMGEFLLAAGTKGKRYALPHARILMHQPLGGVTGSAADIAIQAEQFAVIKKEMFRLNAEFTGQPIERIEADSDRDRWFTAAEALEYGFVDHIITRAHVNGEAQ
T1 sequence (P9WPC3 whole entry, the tested form may be a part): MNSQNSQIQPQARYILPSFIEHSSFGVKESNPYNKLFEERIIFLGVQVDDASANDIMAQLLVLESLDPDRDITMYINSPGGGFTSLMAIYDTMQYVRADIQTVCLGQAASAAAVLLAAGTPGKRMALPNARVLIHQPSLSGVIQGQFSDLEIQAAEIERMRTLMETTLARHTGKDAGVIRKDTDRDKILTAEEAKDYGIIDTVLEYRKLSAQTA

For orientation: IC50 means the concentration at which inhibition is half-maximal. What is called MIC is the lowest concentration that inhibits growth of the organism. For `COc1cc2c(Oc3ccc4[nH]c(C)cc4c3F)ncnc2cc1O`, the figures for the IC50 on ClpP1P2 [1] and on ClpP1P2 [2] were 45.3 µM and greater than 100 µM, respectively. For the same molecule, the MIC in assay [3] is greater than 118 µM.
For `COc1cc2c(Nc3ccc4[nH]c(C)cc4c3F)ncnc2cc1OCCCN1CCCC1`, the IC50 at ClpP1P2 [1] and at ClpP1P2 [2] was greater than 100 µM each time. In addition, the MIC in assay [3] is greater than 89 µM.
On to `COc1cc2c(Oc3ccc4cc[nH]c4c3)ncnc2cc1OCCCN1CCCC1`, for which the IC50 on ClpP1P2 [1] and at ClpP1P2 [2] was greater than 100 µM each time. Moreover, the MIC in assay [3] was greater than 95.6 µM.
For `COc1cc2c(Oc3ccc4[nH]c(C)cc4c3F)ncnc2cc1OCCCN1CCC[C@@H](N)C1`, the figures for the IC50 on ClpP1P2 [1] and on ClpP1P2 [2] were 3.3 µM and 19.1 µM, respectively. In addition, the MIC in [3] is 32 µM (≈ 15.3 µg/mL). Moreover, the result in [4] was Active.
For `COc1cc2c(OC)ncnc2cc1OCCCN1CCCC1`, the IC50 at ClpP1P2 [1] and at ClpP1P2 [2] was greater than 100 µM each time. Also, in assay [3], the MIC is greater than 126 µM.
As to `COc1cc(C(=O)Nc2ccc3[nH]c(C)cc3c2F)ccc1OCCCN1CCCC1`, the IC50 at ClpP1P2 [1] is 26.8 µM; at ClpP1P2 [2], greater than 100 µM. The MIC in assay [3] is greater than 94 µM.
In the case of `COc1cc2c(Oc3ccc4[nH]c(C)cc4c3F)ncnc2cc1OCCCCl`, the IC50 was 49.2 µM on ClpP1P2 [1] and greater than 100 µM on ClpP1P2 [2]. For the same molecule, the MIC in [3] was greater than 96.2 µM.
As usually defined, the EC50 is the concentration at which the effect is half-maximal. Take `COc1cc2c(Oc3ccc4[nH]c(C)cc4c3F)ncnc2cc1OCCCN1CCC(c2ccc(C(N)=O)cc2)CC1`: the IC50 was 2.6 µM on ClpP1P2 [1]; 8.9 µM at ClpP1P2 [2]; greater than 100 µM at ClpP1P2 [10]; 193 µM in assay [11]; 1.8 µM in [16]; 22.1 µM in assay [17]. Also, the inhibition entry in assay [5] and in assay [6] was “inactive” throughout. Moreover, the EC50 at ClpP1P2 [7] was determined as 12.1 µM. The MIC in assay [3] was 12.5 µM (≈ 7.3 µg/mL); in assay [8], greater than 439 µg/mL; in assay [18], 85.7 µg/mL (≈ 147 µM); in assay [19] it was 42.8 µg/mL (≈ 73.3 µM). Also, the inhibition result in assay [9] is “Active”. Moreover, the Ratio IC50 in assay [12] was 12.1; in assay [13] it was 18.4. Moreover, the Activity in assay [14] is 10%; in assay [15], 60%. Further, the “growth inhibition (GI)” value in [20] and in assay [21] was “Active” throughout.
With `Cc1cc2c(F)c(Oc3ncnn4cc(OC[C@@H](C)O)c(C)c34)ccc2[nH]1` [BRIVANIB], the IC50 came out at 6.9 µM on ClpP1P2 [1] and 24.2 µM on ClpP1P2 [2]. Further, the inhibition result in [22] is “Active”. Moreover, the inhibition entry in [5] and in assay [6] was “inactive” each time.
In the case of `Oc1c(Cl)cc(Cl)c(Cl)c1Cc1c(O)c(Cl)cc(Cl)c1Cl` [HEXACHLOROPHENE], the IC50 at ClpP1P2 [1] worked out at 4.9 µM. In [22], the inhibition entry is “Active”.
`CC(=O)NC[C@H]1CN(c2ccc(N3CCOCC3)c(F)c2)C(=O)O1` [LINEZOLID]: the MIC in [23] is 0.2 µM (≈ 0.0675 µg/mL); in [3] it was 0.2 µM (≈ 0.0675 µg/mL); in [8] it was 5.9 µM; in the assay with Escherichia coli, greater than 379 µM; in the assay with Staphylococcus aureus, 5.9 µM (≈ 1.99 µg/mL); in the assay on Pseudomonas aeruginosa it was greater than 379 µM.
Turning to `CO[C@H]1/C=C/O[C@@]2(C)Oc3c(C)c(O)c4c(O)c(c(/C=N/N5CCN(C)CC5)c(O)c4c3C2=O)NC(=O)/C(C)=C\C=C\[C@H](C)[C@H](O)[C@@H](C)[C@@H](O)[C@@H](C)[C@H](OC(C)=O)[C@@H]1C` [RIFAMPIN], the results for the MIC in the assay with Escherichia coli and in the assay on Pseudomonas aeruginosa were 4.9 µM (≈ 4.03 µg/mL) and 38.9 µM (≈ 32 µg/mL), respectively.

The values are drawn from ChEMBL document CHEMBL5375995, “Discovery and Mechanistic Study of Novel Mycobacterium tuberculosis ClpP1P2 Inhibitors” (J Med Chem, 2023).
